According to US9125862B2, “Methods for the treatment of Prader-Willi-like syndrome or non-organic failure to thrive (NOFITT) feeding disorder using an agonist of the oxytocin receptor” (Institut National de la Sante et de la Rechereche Medicale …, priority 2010, dated 2015):

Tests used:
Assay type in all cases: in vivo, human
adult patients with PWS [1] = experiment: Tolerance in the clinical pilot study; details: single intranasal 24 UI
Description: (§1) The inventors designed a double-blind randomised, placebo-controlled pilot study (ClinicalTrials.gov Identifier: NCT01038570) to be conducted in a dedicated PWS centre, where patients are regularly admitted for one month and live in a controlled environment. Patients know they have no free access to food but no doubt about the time and the content of meals. For each stay, 16 patients with PWS are admitted and take part in daily planned occupational and physical group activities. They also receive medical care as needed and psychological support. The 24 patients included in this study (16 females, 8 males, median age 28.5 years [18.7 to 43.6], median BMI 43 kg/m2 [19.4 to 67.4]) were stratified on gender and IQ (median IQ=51 [45 to 75]). […] Patients as well as parents or caregivers gave their written consent prior to entering the study. Exclusion criteria were an abnormal ECG and other severe cardiovascular problems. Patients were well known to the team. Each pair of patients of the same gender and same IQ range was evaluated the same day. The two patients of the pair received either OT or placebo in a double-blind randomisation. Patients were included in the study over the course of three series of stays.
(§2) Each patient received a single intranasal administration of either placebo (saline solution) or OT (Syntocinon®/-Spray, Novartis, Basel, Switzerland) with three puffs per nostril (24 UI). The dose of 24 UI is the most frequently reported in the literature. […] This nurse knew neither the patients nor the study.

adult patients with PWS [2] = experiment: Behavioural grid scores after a single intranasal administration, double-blind placebo-controlled pilot study; design: key to Change in behavioural scores: Depressive tendencies, Mean / Change in behavioural scores: Self-depreciation, Mean / Change in behavioural scores: Interest in love affair, Mean / Change in behavioural scores: Trust in others, Mean / Change in behavioural scores: Isolation tendencies, Mean / Change in behavioural scores: Sadness tendencies, Mean: grid score: negative = deterioration, positive = improvement
Description: as §1, §2
The behaviour of the patients was carefully monitored, scored daily by the team psychologist, and documented on the case report form for the two days before drug administration, on the half-day following administration (early effects) and over the two days following drug administration (late effects). Both the staff and the rater were unaware of treatment status. There are currently no validated grids that evaluate the specific behavioural features of patients with PWS that they particularly wanted to study, i.e. tendencies towards isolation, sadness, and depression, self-depreciation, self-mutilation, conflicts with others, disruptive behaviour, interest in friendship, interest in love affairs, and trust of others. For this reason, they used an in-house grid developed by the caregivers and based on the routine observation of these patients in this dedicated centre for PWS with recognized expertise (17, 18). The criteria that the staff used to fill in the grid are explained in Table 1. The patients were well known to the team but the mean behavior status was re-evaluated during the first week of admission using the same grid. The behavioural features of the patients were scored as unchanged, moderately changed, or severely changed. For each criterion, a negative score reflected deterioration in the mean behavior status of the patient while a positive score reflected an improvement. Eating behaviour was also scored using three categories: usual, better than usual or worse, based on the analysis of each meal. The following were evaluated: amount of food intake per meal, amount of food requested per meal, duration of meal, and behaviour before/during/after the meal. To evaluate the early effect of OT, we analysed only the first meal after drug administration.

adult patients with PWS [3] = experiment: Tests evaluating the understanding of social codes (Sally and Ann, Cartoons, RMET); details: 45 minutes after intranasal 24 UI
Method: Forty-five minutes after the intranasal administration, three tests evaluating the understanding of social codes were administered, which lasted one hour. Conversely to the behavioural grid, there was no pre-administration evaluation. The Sally and Ann test assesses one's ability to understand simple situations by story-telling and pictures. Cartoons depicting more complex social situations designed for the evaluation of autistic children were also used (“Cartoons”, unpublished test). The “Reading the Mind in the Eyes” test (RMET) assesses the ability to read emotions from subtle affective facial expressions, especially in the eyes. A shortened test with 19 images from the 36-item revised version was chosen by the team psychologist. In these three tests, TOM is necessary to understand and analyse the social situations that are presented. Statistical analysis was performed using the Mann-Whiney test, the Wilcoxon test or the chi2 test.

[4] = 19 patients with deletions, P=0.05, data not shown
[5] = Early effect (half-day following administration), intranasal 24 UI
[6] = Late effect (mean of two days following administration), intranasal 24 UI
[7] = Pre-administration (mean of two days before), OT group baseline
[8] = pre-post difference (late effect score minus pre-administration score), OT group

CC[C@H](C)[C@@H]1NC(=O)[C@H](Cc2ccc(O)cc2)NC(=O)[C@@H](N)CSSC[C@@H](C(=O)N2CCC[C@H]2C(=O)N[C@@H](CC(C)C)C(=O)NCC(N)=O)NC(=O)[C@H](CC(N)=O)NC(=O)[C@H](CCC(N)=O)NC1=O [oxytocin]
Tolerance (adult patients with PWS [1]): excellent | adverse event during the study (adult patients with PWS [1]): No adverse event | effect on electrocardiogram and PSA (adult patients with PWS [1]): no effect | effect on disruptive behaviour (adult patients with PWS [2]; 19 patients with deletions (9 OT, 10 placebo), P=0.04, data not shown): significant effect | interest in friendship (adult patients with PWS [2]; [4]): more interest in friendship | trust in others (adult patients with PWS [2]; [4]): trend towards more trust in others | sadness tendencies (adult patients with PWS [2]; 19 patients with deletions, P=0.07, data not shown): fewer sadness tendencies | Depressive tendencies score (adult patients with PWS [2]; [5]): 0 ± 0 | Disruptive behaviour score (adult patients with PWS [2]; [5]): −0.167 ± 0.389 | Interest in friendship score (adult patients with PWS [2]; [5]): 0.917 ± 0.515 | Interest in love affairs score (adult patients with PWS [2]; [5]): 0.917 ± 0.515 | Isolation tendencies score (adult patients with PWS [2]; [5]): −0.083 ± 0.289 | Sadness tendencies score (adult patients with PWS [2]; [5]): −0.083 ± 0.289 | Self-depreciation score (adult patients with PWS [2]; [5]): −0.083 ± 0.289 | Self-mutilation score (adult patients with PWS [2]; [5]): −0.083 ± 0.289 | Trust in others score (adult patients with PWS [2]; [5]): 0.833 ± 0.389 | Conflicts with others score (adult patients with PWS [2]; [6]): −0.111 ± 0.205 | Depressive tendencies score (adult patients with PWS [2]; [6]): 0 ± 0 | Interest in friendship score (adult patients with PWS [2]; [6]): 1.028 ± 0.234 | Interest in love affairs score (adult patients with PWS [2]; [6]): 0.903 ± 0.411 | Isolation tendencies score (adult patients with PWS [2]; [6]): 0 ± 0 | Self-depreciation score (adult patients with PWS [2]; [6]): 0 ± 0 | Self-mutilation score (adult patients with PWS [2]; [6]): −0.083 ± 0.195 | Conflicts with others score (adult patients with PWS [2]; [7]): −0.319 ± 0.359 | Depressive tendencies score (adult patients with PWS [2]; [7]): −0.056 ± 0.192 | Disruptive behaviour score (adult patients with PWS [2]; [7]): −0.431 ± 0.344 | Interest in friendship score (adult patients with PWS [2]; [7]): 0.875 ± 0.433 | Interest in love affairs score (adult patients with PWS [2]; [7]): 0.972 ± 0.531 | Isolation tendencies score (adult patients with PWS [2]; [7]): −0.083 ± 0.289 | Sadness tendencies score (adult patients with PWS [2]; [7]): −0.194 ± 0.407 | Self-depreciation score (adult patients with PWS [2]; [7]): −0.056 ± 0.192 | Self-mutilation score (adult patients with PWS [2]; [7]): −0.278 ± 0.468 | Trust in others score (adult patients with PWS [2]; [7]): 0.861 ± 0.332 | disruptive behaviour (adult patients with PWS [2]; excluding the seven patients on psychotropic medications, two days following administration, P=0.04, data not shown): less disruptive behaviour | Change in behavioural scores: Conflicts with others, Mean (adult patients with PWS [2]; [8]): 0.208 | Change in behavioural scores: Depressive tendencies, Mean (adult patients with PWS [2]; [8]): 0.056 | Change in behavioural scores: Interest in friendship, Mean (adult patients with PWS [2]; [8]): 0.153 | Change in behavioural scores: Interest in love affair, Mean (adult patients with PWS [2]; [8]): −0.069 | Change in behavioural scores: Isolation tendencies, Mean (adult patients with PWS [2]; [8]): 0.083 | Change in behavioural scores: Sadness tendencies, Mean (adult patients with PWS [2]; [8]): 0.111 | Change in behavioural scores: Self-depreciation, Mean (adult patients with PWS [2]; [8]): 0.056 | Change in behavioural scores: Trust in others, Mean (adult patients with PWS [2]; [8]): 0.167 | patients who successfully completed the Sally and Ann test (adult patients with PWS [3]; OT group n=12, placebo 50%, P=0.19): Eighty-three | Cartoons score (adult patients with PWS [3]; OT vs placebo, P=0.56): 3.75 (1-18) | total RMET score (adult patients with PWS [3]; placebo 5.5 (1-11), P=0.18): 7 (4-9)
